Results published in publication PMC9604325 (International Journal of Molecular Sciences, 2022).

What was measured:
[1] = tested on: mature cerebellar granule neurons; details: 2 h of incubation; cited from earlier work
[2] = tested on: store-operated calcium entry (SOCE) in HT-22 cells; assay: SOCE Ca2+ imaging in Fluo3-loaded HT-22 cells (Tg-induced store release, then Ca2+ entry); assay type: cell-based, mouse
Protocol: (§1) Cytosolic Ca^2+ imaging was assessed in the HT-22 cell culture with the fluorescent probe Fluo3-AM. […] The untread cells were regarded as the controls. […] Then, the cells were washed once with 1 mL of MLocke’s K5 buffer, and the 35 mm culture dishes were placed in the thermostatic plate at 37 °C (Warner Instrument Co., Hamden, CT, USA) of the Nikon Diaphot 300 inverted epifluorescence microscope (Tokyo, Japan) with an NCF Plan ELWD 40× objective (the pixel size of the images shown in this work was 0.2 μm). The images of the Fluo3-loaded cells were acquired with the Hamamatsu Orca-R^2 CCD camera (binning mode 2 × 2) with an excitation filter of 470 nm, a dichroic mirror of 510 nm with an emission filter of 520 nm, and a 0.3 s exposure time. […] The depletion of the Ca^2+ stores was triggered by adding 2 μM of the SERCA pump blocker Tg plus ethylene glycol tetraacetic acid (1 mM), in a Ca^2+-free Mlocke’s K5 buffer. Then, the SOCE was measured after the addition of 3 mM of CaCl2 to the Tg-containing medium. […] The activity of the RyR Ca^2+-leak channels was evaluated by incubation with 100 μM of the RyR antagonist ryanodine for 1 h in the HT-22 culture media. In all experiments with antagonists, we performed the respective dimethylsulfoxide vehicle controls.

[3] = tested on: HT-22 cells; assay: Resting cytosolic Ca2+ concentration, Fura2/Fluo3-loaded HT-22 cells; assay type: cell-based, mouse; details: 2 μM Aβ(1-42), control 75 ± 8 nM, mean ± SEM of triplicates, n > 60 cells
Protocol: as §1, with “vehicle controls. […]” for “vehicle controls.”

[4] = tested on: HT-22 cells; assay: Cellular GSH level, monochlorobimane fluorescence; assay type: cell-based, mouse; details: 2 μM Aβ(1-42), 2 h or 5 h; 10 μM MCB
Protocol: The cellular GSH level was monitored with MCB using fluorescence microscopy, as described in our previous work. Images were acquired with a Nikon Diaphot 300 epifluorescence microscope, with an excitation filter of 380 nm.
(A) Representative microscopy images
(B) Means of the average fluorescence intensity
Supplementary Figure S5. GSH levels are not altered after 2 h […]
37 ᵒC were washed once with MLocke’s K5 buffer and the plates were placed in the holder of the fluorescence microscope (37 ᵒC) for cell imaging before and after the addition of 10 μM MCB as described in the Material and Methods section.
Panel A: representative bright field and blue fluorescence images
(GS-MCB) acquired 2 min after MCB addition of untreated cells […]
exposure was 0.7 s and the scale bar inserted = 20 μm. Panel B: means of fluorescence intensity per pixel of HT-22 cells after 2 min of incubation with MCB (10 μM). The results shown are the […]
in GSH levels between untreated cells (control) and cells treated […]
(also on this page, place not known: 0 100 200 300 400 Fluorescenece (Intensity/pixel) µM Aβ(1-42) µM Aβ(1-42) n.s. n.s. Bright Blue Fluorescence Control 2h IJMS-1941218 field 2 2 of MCB 2 2 h 5 h) […]

[5] = tested on: PDI; parameters: method as in earlier work; details: up to 200 nM Aβ(1-42), HT-22 cell lysates, isomerase assay of ref 67; cited from earlier work

Aβ(1-42): Unlabeled amyloid β peptide (1-42), synthesized and supplied by StabVida
internalized Aβ(1-42) [1]: about 193 ± 21 nM | inhibition of Ca2+ released from stores after Tg addition ([2]; 2 μM Aβ(1-42) 2 h plus 3 μM BTP2 15 min, mean ± SEM): 42 ± 6% | inhibition of Ca2+ release from the stores after Tg addition, compared with control ([2]; 2 μM Aβ(1-42), 2 h, 37 °C, 2 μM Tg, Ca2+-free medium, ΔF/F0, mean ± SEM, n > 80 cells): 37 ± 7% | inhibition of Ca2+ entry through the plasma membrane after Ca2+ addition, compared with control ([2]; 2 μM Aβ(1-42), 2 h, 37 °C, 3 mM Ca2+ after Tg, ΔF/F0, mean ± SEM, n > 80 cells): 32 ± 6% | SOCE induced by Aβ(1-42) in the absence of Tg ([2]; HT-22 cells, no thapsigargin): did not detect | intracellular Ca2+ concentration [Ca2+]i ([3]; 2 h): 81 ± 9 nM | intracellular Ca2+ concentration [Ca2+]i ([3]; 5 h): 82 ± 8 nM | GSH levels versus untreated cells [4]: not significantly different | inhibition of PDI activity [5]: did not significantly inhibit
